According to publication PMC5218480 (PLoS ONE, 2017):

Test system: MV-4-11 cells
Test: Gene expression microarray analysis (Affymetrix PrimeView) and GSEA
Format: cell-based, human
Parameters: RFU PODN (11730768_x_at) / Fold change /veh PODN (11730768_x_at) / RFU LINC00158 (11744669_a_at) / Fold change /veh LINC00158 (11744669_a_at) / RFU DUSP10 (11751237_a_at) / Fold change /veh DUSP10 (11751237_a_at) / RFU ID3 (11757404_x_at) / Fold change /veh ID3 (11757404_x_at) / RFU PLEKHG5 (11737974_s_at) / Fold change /veh PLEKHG5 (11737974_s_at) / RFU LRRC4B (11730491_at) / Fold change /veh LRRC4B (11730491_at) / RFU GIMAP4 (11747438_a_at) / Fold change /veh GIMAP4 (11747438_a_at) / RFU KRT8 (11758183_x_at) / Fold change /veh KRT8 (11758183_x_at) / RFU CNN1 (11734310_a_at) / Fold change /veh CNN1 (11734310_a_at) / RFU VPS37D (11726825_at) / Fold change /veh VPS37D (11726825_at) / RFU C10orf10 (11716522_x_at) / Fold change /veh C10orf10 (11716522_x_at) / RFU KIR2DL2 /// KIR2DL4 /// KIR2DL5A /// KIR2DL5B /// KIR2DS1 /// KIR2DS2 /// KIR2DS3 /// KIR2DS4 /// KIR3DL3 /// KIR3DL3 /// KIR3DS1 (11738374_at) / Fold change /veh KIR2DL2 /// KIR2DL4 /// KIR2DL5A /// KIR2DL5B /// KIR2DS1 /// KIR2DS2 /// KIR2DS3 /// KIR2DS4 /// KIR3DL3 /// KIR3DL3 /// KIR3DS1 (11738374_at) / RFU C1QL1 (11718748_at) / Fold change /veh C1QL1 (11718748_at) / RFU TMPRSS4 (11747572_a_at) / Fold change /veh TMPRSS4 (11747572_a_at) / RFU HAMP (11756126_x_at) / Fold change /veh HAMP (11756126_x_at) / RFU RNFT2 (11725882_a_at) / Fold change /veh RNFT2 (11725882_a_at) / RFU NR4A2 (11747474_a_at) / Fold change /veh NR4A2 (11747474_a_at) / RFU ABCC12 (11746883_a_at) / Fold change /veh ABCC12 (11746883_a_at) / RFU TMEM136 (11760407_x_at) / Fold change /veh TMEM136 (11760407_x_at) / RFU CLDN22 /// WWC2 (11732394_at) / Fold change /veh CLDN22 /// WWC2 (11732394_at) / RFU HLA-DPB1 (11760878_x_at) / Fold change /veh HLA-DPB1 (11760878_x_at) / RFU SPINT1 (11716480_a_at) / Fold change /veh SPINT1 (11716480_a_at) / RFU GAP43 (11754022_s_at) / Fold change /veh GAP43 (11754022_s_at) / RFU A4GNT (11735810_at) / Fold change /veh A4GNT (11735810_at) / RFU PRB3 (11715151_x_at) / Fold change /veh PRB3 (11715151_x_at) / RFU TUBB4B (11761932_at) / Fold change /veh TUBB4B (11761932_at) / RFU CAPN14 (11732068_a_at) / Fold change /veh CAPN14 (11732068_a_at) / RFU TMCC2 (11721928_a_at) / Fold change /veh TMCC2 (11721928_a_at) / RFU IRGQ (11745062_a_at) / Fold change /veh IRGQ (11745062_a_at) / RFU FAM174B (11720279_a_at) / Fold change /veh FAM174B (11720279_a_at) / RFU TMPRSS4 (11748680_a_at) / Fold change /veh TMPRSS4 (11748680_a_at) / RFU FAM212B (11763350_a_at) / Fold change /veh FAM212B (11763350_a_at) / RFU PLEKHG5 (11743358_a_at) / Fold change /veh PLEKHG5 (11743358_a_at) / RFU ZSCAN30 (11745921_a_at) / Fold change /veh ZSCAN30 (11745921_a_at) / RFU CMKLR1 (11741424_a_at) / Fold change /veh CMKLR1 (11741424_a_at) / RFU LOC101060620 /// MAPK8IP1 (11723275_at) / Fold change /veh LOC101060620 /// MAPK8IP1 (11723275_at) / RFU SPTSSB (11747773_x_at) / Fold change /veh SPTSSB (11747773_x_at) / RFU PRSS12 (11739890_at) / Fold change /veh PRSS12 (11739890_at) / RFU BIN1 (11741810_x_at) / Fold change /veh BIN1 (11741810_x_at) / RFU WNT11 (11732464_a_at) / Fold change /veh WNT11 (11732464_a_at) / RFU C10orf10 (11716521_a_at) / Fold change /veh C10orf10 (11716521_a_at) / RFU C5orf56 (11738089_at) / Fold change /veh C5orf56 (11738089_at) / RFU CYB561 (11721691_x_at) / Fold change /veh CYB561 (11721691_x_at) / RFU ANKRD19P (11752326_a_at) / Fold change /veh ANKRD19P (11752326_a_at) / RFU OR2T12 /// OR2T33 /// OR2T8 (11738714_s_at) / Fold change /veh OR2T12 /// OR2T33 /// OR2T8 (11738714_s_at) / RFU VCAN (11748164_a_at) / Fold change /veh VCAN (11748164_a_at) / RFU JSRP1 (11732532_at) / Fold change /veh JSRP1 (11732532_at) / RFU KRTAP10-11 (11738290_x_at) / Fold change /veh KRTAP10-11 (11738290_x_at) / RFU MYO3A (11730013_a_at) / Fold change /veh MYO3A (11730013_a_at) / RFU EBF3 (11725865_a_at) / Fold change /veh EBF3 (11725865_a_at) / RFU CAMK2N1 (11719241_x_at) / Fold change /veh CAMK2N1 (11719241_x_at) / RFU C5orf56 (11738088_a_at) / Fold change /veh C5orf56 (11738088_a_at) / RFU OLFML3 (11715873_a_at) / Fold change /veh OLFML3 (11715873_a_at) / RFU LOC100653217 /// NTM (11731650_a_at) / Fold change /veh LOC100653217 /// NTM (11731650_a_at) / RFU MAPK11 (11762145_a_at) / Fold change /veh MAPK11 (11762145_a_at) / RFU FIZ1 (11724087_x_at) / Fold change /veh FIZ1 (11724087_x_at) / RFU OASL (11726364_x_at) / Fold change /veh OASL (11726364_x_at) / RFU SOX15 (11748057_x_at) / Fold change /veh SOX15 (11748057_x_at) / RFU CD79A (11719716_a_at) / Fold change /veh CD79A (11719716_a_at) / RFU HIST1H1D (11736915_at) / Fold change /veh HIST1H1D (11736915_at) / RFU CASKIN2 (11723855_a_at) / Fold change /veh CASKIN2 (11723855_a_at) / RFU LOC730098 (11760151_x_at) / Fold change /veh LOC730098 (11760151_x_at) / RFU OR4N2 (11742367_at) / Fold change /veh OR4N2 (11742367_at) / RFU PRRT2 (11749266_a_at) / Fold change /veh PRRT2 (11749266_a_at) / RFU SNX32 (11753110_a_at) / Fold change /veh SNX32 (11753110_a_at) / RFU CDHR5 (11726645_a_at) / Fold change /veh CDHR5 (11726645_a_at) / RFU RCAN1 (11760418_a_at) / Fold change /veh RCAN1 (11760418_a_at) / RFU FAM167A (11723789_a_at) / Fold change /veh FAM167A (11723789_a_at) / RFU FAM26E (11764081_at) / Fold change /veh FAM26E (11764081_at) / RFU ISYNA1 (11749810_s_at) / Fold change /veh ISYNA1 (11749810_s_at) / RFU ACY1 (11761880_at) / Fold change /veh ACY1 (11761880_at) / RFU 11764098_at / Fold change /veh 11764098_at / RFU SAMD14 (11745864_x_at) / Fold change /veh SAMD14 (11745864_x_at) / RFU NPB (11741838_a_at) / Fold change /veh NPB (11741838_a_at) / RFU TMPRSS6 (11731388_a_at) / Fold change /veh TMPRSS6 (11731388_a_at) / RFU KRTAP10-2 (11738614_at) / Fold change /veh KRTAP10-2 (11738614_at) / RFU ARHGAP8 /// PRR5-ARHGAP8 (11727945_x_at) / Fold change /veh ARHGAP8 /// PRR5-ARHGAP8 (11727945_x_at) / RFU KRTAP5-7 /// NADSYN1 (11734609_at) / Fold change /veh KRTAP5-7 /// NADSYN1 (11734609_at) / RFU RASL12 (11751679_a_at) / Fold change /veh RASL12 (11751679_a_at) / RFU CDKN2B (11736163_a_at) / Fold change /veh CDKN2B (11736163_a_at) / RFU PRF1 (11729649_at) / Fold change /veh PRF1 (11729649_at) / RFU, ZNF638 /// ZNF638-IT1 / Fold change vs veh, ZNF638 /// ZNF638-IT1 / RFU, PANK3 / Fold change vs veh, PANK3 / RFU, SH3YL1 / Fold change vs veh, SH3YL1 / RFU, ZEB2 / Fold change vs veh, ZEB2 / RFU, NRIP1 / Fold change vs veh, NRIP1 / RFU, PTTG1IP / Fold change vs veh, PTTG1IP / RFU, CAPN2 / Fold change vs veh, CAPN2 / RFU, MED14 / Fold change vs veh, MED14 / RFU, SNORA58 / Fold change vs veh, SNORA58 / RFU, C1orf63 / Fold change vs veh, C1orf63 / RFU, LRRFIP1 / Fold change vs veh, LRRFIP1 / RFU, NDUFAF7 / Fold change vs veh, NDUFAF7 / RFU, SLC12A2 / Fold change vs veh, SLC12A2 / RFU, IBTK / Fold change vs veh, IBTK / RFU, ESF1 / Fold change vs veh, ESF1 / Fold change vs veh, TMEM50B / RFU, TAOK1 / Fold change vs veh, TAOK1 / RFU, ACBD3 / Fold change vs veh, ACBD3 / RFU, TMA16 / Fold change vs veh, TMA16 / RFU, RWDD3 / Fold change vs veh, RWDD3 / RFU, BCAT1 / Fold change vs veh, BCAT1 / RFU, EDEM3 / Fold change vs veh, EDEM3 / RFU, TMEM33 / Fold change vs veh, TMEM33 / RFU, WDR75 / Fold change vs veh, WDR75 / RFU, AHCTF1 / Fold change vs veh, AHCTF1 / RFU, TFRC / Fold change vs veh, TFRC / RFU, ZDHHC17 / Fold change vs veh, ZDHHC17 / RFU, NOM1 / Fold change vs veh, NOM1 / RFU, ARL8B / Fold change vs veh, ARL8B / RFU, ZBTB11 / Fold change vs veh, ZBTB11 / RFU, TAMM41 / Fold change vs veh, TAMM41 / RFU, KIAA1704 /// LOC100996395 / Fold change vs veh, KIAA1704 /// LOC100996395 / RFU, ING1 / Fold change vs veh, ING1 / RFU, TRMT61B / Fold change vs veh, TRMT61B / RFU, FUBP3 / Fold change vs veh, FUBP3 / RFU, TP53 / Fold change vs veh, TP53 / RFU, TNKS2 / Fold change vs veh, TNKS2 / RFU, ZFP14 / Fold change vs veh, ZFP14 / RFU, ACTR2 / Fold change vs veh, ACTR2 / RFU, PPP3R1 / Fold change vs veh, PPP3R1 / RFU, PIK3R1 / Fold change vs veh, PIK3R1 / RFU, HNRNPA1 / Fold change vs veh, HNRNPA1 / RFU, RNF170 / Fold change vs veh, RNF170 / RFU, ZNF28 / Fold change vs veh, ZNF28 / RFU, RNGTT / Fold change vs veh, RNGTT / RFU, OGT / Fold change vs veh, OGT / RFU, BRD1 / Fold change vs veh, BRD1 / RFU, MARS / Fold change vs veh, MARS / RFU, ZNF655 / Fold change vs veh, ZNF655 / RFU, FAHD1 / Fold change vs veh, FAHD1 / RFU, BDP1 / Fold change vs veh, BDP1 / RFU, LRRCC1 / Fold change vs veh, LRRCC1 / RFU, ARID1A / Fold change vs veh, ARID1A / RFU, ZNF146 / Fold change vs veh, ZNF146 / RFU, ZNF330 / Fold change vs veh, ZNF330 / RFU, GPN3 / Fold change vs veh, GPN3 / RFU, C9orf123 / Fold change vs veh, C9orf123 / RFU, N4BP2L2 / Fold change vs veh, N4BP2L2 / RFU, ARFIP1 / Fold change vs veh, ARFIP1 / RFU, FAM179B / Fold change vs veh, FAM179B / RFU, BCL10 / Fold change vs veh, BCL10 / RFU, UHRF1BP1L / Fold change vs veh, UHRF1BP1L / RFU, BET1 / Fold change vs veh, BET1 / RFU, CNOT2 / Fold change vs veh, CNOT2 / RFU, ZNF268 / Fold change vs veh, ZNF268 / Fold change vs veh, ZNF507 / RFU, DGCR2 / Fold change vs veh, DGCR2 / RFU, WDSUB1 / Fold change vs veh, WDSUB1 / Fold change vs veh, HSP90B1 /// MIR3652 / RFU, ADSS / Fold change vs veh, ADSS / RFU, GK / Fold change vs veh, GK / RFU, ZNF148 / Fold change vs veh, ZNF148 / RFU, TAF9 / Fold change vs veh, TAF9 / RFU, SLC1A5 / Fold change vs veh, SLC1A5 / RFU, SLMO2 / Fold change vs veh, SLMO2 / RFU, ABCC4 / Fold change vs veh, ABCC4 / RFU, LOC101060439 /// RAP1B / Fold change vs veh, LOC101060439 /// RAP1B / RFU, RFX7 / Fold change vs veh, RFX7 / RFU, GTPBP10 / Fold change vs veh, GTPBP10 / RFU, CNEP1R1 / Fold change vs veh, CNEP1R1 / RFU, BIVM-ERCC5 /// ERCC5 / Fold change vs veh, BIVM-ERCC5 /// ERCC5 / RFU, ILF3 / Fold change vs veh, ILF3 / RFU 11762660_at / Fold change /veh 11762660_at / RFU VCAN (11757783_s_at) / Fold change /veh VCAN (11757783_s_at) / RFU DDX43 (11728927_at) / Fold change /veh DDX43 (11728927_at) / RFU KRT8 (11758188_x_at) / Fold change /veh KRT8 (11758188_x_at) / RFU NKD1 (11759106_at) / Fold change /veh NKD1 (11759106_at) / RFU SRD5A1 (11742802_a_at) / Fold change /veh SRD5A1 (11742802_a_at) / RFU TPSAB1 /// TPSB2 (11721975_s_at) / Fold change /veh TPSAB1 /// TPSB2 (11721975_s_at) / RFU GSTM3 (11746129_a_at) / Fold change /veh GSTM3 (11746129_a_at) / RFU IL23R (11737362_x_at) / Fold change /veh IL23R (11737362_x_at) / RFU TMEM51 (11727254_a_at) / Fold change /veh TMEM51 (11727254_a_at) / RFU PIWIL2 (11732686_x_at) / Fold change /veh PIWIL2 (11732686_x_at) / RFU ORM1 (11744905_x_at) / Fold change /veh ORM1 (11744905_x_at) / RFU CCDC152 (11743942_at) / Fold change /veh CCDC152 (11743942_at) / RFU ECM1 (11717891_a_at) / Fold change /veh ECM1 (11717891_a_at) / RFU IL23R (11748794_a_at) / Fold change /veh IL23R (11748794_a_at) / RFU TNFAIP8L3 (11732012_x_at) / Fold change /veh TNFAIP8L3 (11732012_x_at) / RFU MBOAT4 (11741988_at) / Fold change /veh MBOAT4 (11741988_at) / RFU 11764193_at / Fold change /veh 11764193_at / RFU TMEM53 (11763286_at) / Fold change /veh TMEM53 (11763286_at) / RFU MAGEB2 (11727129_at) / Fold change /veh MAGEB2 (11727129_at) / RFU TMEM200A (11744735_a_at) / Fold change /veh TMEM200A (11744735_a_at) / RFU CCDC152 (11751479_a_at) / Fold change /veh CCDC152 (11751479_a_at) / RFU FAM211A (11726209_a_at) / Fold change /veh FAM211A (11726209_a_at) / RFU RGS16 (11746705_a_at) / Fold change /veh RGS16 (11746705_a_at) / RFU VCAN (11755009_s_at) / Fold change /veh VCAN (11755009_s_at) / RFU RHOB (11743442_s_at) / Fold change /veh RHOB (11743442_s_at) / RFU RGS16 (11720943_a_at) / Fold change /veh RGS16 (11720943_a_at) / RFU RGS16 (11720944_at) / Fold change /veh RGS16 (11720944_at) / RFU, VPS4B / Fold change vs veh, VPS4B / RFU, CREB1 / Fold change vs veh, CREB1 / RFU, DNAJC13 / Fold change vs veh, DNAJC13 / RFU, GNAQ / Fold change vs veh, GNAQ / RFU, CDK5R1 / Fold change vs veh, CDK5R1 / RFU, ZRANB3 / Fold change vs veh, ZRANB3 / RFU, CUL4A / Fold change vs veh, CUL4A / RFU, CCNY / Fold change vs veh, CCNY / RFU, UFL1 / Fold change vs veh, UFL1 / RFU, COG3 / Fold change vs veh, COG3 / RFU, DIAPH2 / Fold change vs veh, DIAPH2 / RFU, SKA2 / Fold change vs veh, SKA2 / RFU, AFF3 / Fold change vs veh, AFF3 / RFU, LMF1 / Fold change vs veh, LMF1 / RFU, IPO11 / Fold change vs veh, IPO11 / RFU, DFFB / Fold change vs veh, DFFB / RFU, FOXP1 / Fold change vs veh, FOXP1 / RFU, CARD8 / Fold change vs veh, CARD8 / RFU, STRN3 / Fold change vs veh, STRN3 / RFU, ADK / Fold change vs veh, ADK / RFU, RASSF2 / Fold change vs veh, RASSF2 / RFU, WIPF1 / Fold change vs veh, WIPF1 / RFU, LARP1B / Fold change vs veh, LARP1B / RFU, RASA1 / Fold change vs veh, RASA1 / RFU, RB1 / Fold change vs veh, RB1 / RFU, PPFIA1 / Fold change vs veh, PPFIA1 / RFU, MAT2A / Fold change vs veh, MAT2A / RFU, CCT5 / Fold change vs veh, CCT5 / RFU, WDR92 / Fold change vs veh, WDR92 / RFU, CUX1 / Fold change vs veh, CUX1 / RFU, TTC7A / Fold change vs veh, TTC7A / RFU, TMEM135 / Fold change vs veh, TMEM135 / RFU, DEPTOR / Fold change vs veh, DEPTOR / RFU, CPM / Fold change vs veh, CPM / RFU, DNAJB6 / Fold change vs veh, DNAJB6 / RFU, CACNA2D3 / Fold change vs veh, CACNA2D3 / RFU, DTX4 / Fold change vs veh, DTX4 / RFU, TFCP2 / Fold change vs veh, TFCP2 / RFU, GMCL1 /// GMCL1P1 / Fold change vs veh, GMCL1 /// GMCL1P1 / RFU, AEBP2 / Fold change vs veh, AEBP2 / RFU, SNHG1 /// SNORD22 /// SNORD25 /// SNORD26 /// SNORD27 /// SNORD28 /// SNORD29 /// SNORD31 / Fold change vs veh, SNHG1 /// SNORD22 /// SNORD25 /// SNORD26 /// SNORD27 /// SNORD28 /// SNORD29 /// SNORD31 / Fold change (Aza/veh), C12orf56 (ProbeSet 11735607_a_at) / Fold change (ACY-1035/veh), C12orf56 (ProbeSet 11735607_a_at) / Fold change (Aza/veh), FGFR1OP (ProbeSet 11751329_s_at) / Fold change (ACY-1035/veh), FGFR1OP (ProbeSet 11751329_s_at) / Fold change (Aza/veh), VPS36 (ProbeSet 11739960_a_at) / Fold change (ACY-1035/veh), VPS36 (ProbeSet 11739960_a_at) / RFU SYPL1 (11715823_x_at) / Fold change /veh SYPL1 (11715823_x_at) / RFU IGFBP7 (11715501_s_at) / Fold change /veh IGFBP7 (11715501_s_at) / RFU REEP3 (11722064_at) / Fold change /veh REEP3 (11722064_at) / RFU IGLL1 (11728026_x_at) / Fold change /veh IGLL1 (11728026_x_at): dose or concentration left out as unconfirmed
Details: ProbeSet 11734782_x_at; LIST D

For `Nc1ccc(-c2cccs2)cc1NC(=O)c1ccc2c(c1)cc(C1CC1)n2CCN1CCOCC1` [ACY-1035], the “Fold change vs veh, WDR92” value was 0.89.
